Reference: PMC10368370, “Development of o-aminobenzamide salt derivatives for improving water solubility and anti-undifferentiated gastric cancer” (Frontiers in Pharmacology, 2023)
“Also recorded” adds a separate entry of the source.

Assays:
Ki-67 = experiment: Immunohistochemical analysis of HGC-27 xenograft tumor; type: in vivo; conditions: vs blank group
Experimental: (§1) Then, immunohistochemical analysis was performed on the tumor of the HGC-27 xenograft tumor model. It is known that cyclin-dependent kinase 2 (CDK2) and CDK inhibitor p21 play pivotal parts in cell cycle regulation, while both downregulation of CDK2 or upregulation of p21 lead to cell cycle arrest ([[…] et al., 2019]; [Sturmlechner et al., 2021]). […] Ki-67 is an antigen associated with proliferating cells, which is usually positively correlated with tumor growth rate ([Menon et al., 2019]). […] Cleaved Caspase-3 is a pro-apoptotic protein, the higher the expression of this protein, the stronger […] ([Wei et al., 2020]). […] E-cadherin which is a type of cell surface transmembrane glycoprotein has an important influence on the cell-cell adhesion function. […] Representative tumor images of IHC analysis stained by CDK2, Cleaved Caspase-3, E-cadherin, KI-67 and p21. Magnification: × 400.

E-cadherin = experiment: as above; type: in vivo; conditions: vs blank group
Experimental: as §1

p21 = experiment: as above; type: in vivo; conditions: vs blank group
Experimental: as §1

CDK2 = experiment: as above; type: in vivo; conditions: vs blank group
Experimental: as §1

Cleaved Caspase-3 = experiment: as above; type: in vivo; conditions: vs blank group
Experimental: as §1

HCT-116 = experiment: MTT cytotoxicity / anti-proliferation assay; type: cell-based; conditions: HCT-116, MTT, 72 h; read-out: IC50, cancer cell viability
[1] = Solubility in aqueous solution (pure water, normal saline); type: physicochemical
[2] = Screening of F8 related organic salts (crystallinity, hygroscopicity, solubility, stability, irritability); type: physicochemical; conditions: salt screening
Text: The selection of salt form is a key step to the success of drug development, which requires a well-designed screening strategy to find the salt form that meets the target performance. Although there are many kinds of counter ions, the commonly used ones are very limited.

HGC-27 xenograft = experiment: HGC-27 tumor xenograft model; type: in vivo, BALB/c nude mice; conditions: p.o., bid; for tumor growth inhibition (TGI): 14 days, HGC-27 xenograft
Experimental: 4-week-old male BALB/c nude mice weighing 18g–22 g were injected with 100 μL HGC-27 cells (2 × 10^6 cells) to establish an undifferentiated gastric cancer model.
(A) Tumor volumes plotted as mean ± SEM. (B) Mice weight curve during treatment plotted as mean ± SD. (C,D) Tumor weight and size on the final day.

SK-Hep-1 = experiment: MTT cytotoxicity / anti-proliferation assay; type: cell-based; conditions: SK-Hep-1, MTT, 72 h; read-out: IC50, cancer cell viability
MDA-MB-468 = experiment: MTT cytotoxicity / anti-proliferation assay; type: cell-based; conditions: MDA-MB-468, MTT, 72 h; read-out: IC50, cancer cell viability
Pharmacokinetic study = type: in vivo, SD rats
Experimental: 7–8-week Male SD rats weighing 180–220 g were allowed for this experiment. The rats were fasted 12 h except for water. The solution was administered to rats by intravenous injection of 10% ethanol +10% solutol as solvent and intragastric injection of 5% castor oil +5% solutol as solvent. The dose concentration was 8 mg/mL for intravenous injection and 10 mg/mL for gavage.
Twelve male SD rats were divided into 4 groups with 3 rats in each group. Group 1 was F8-intravenous injection group, the dose was 20 mg/kg; Group 2 was F8- intragastric administration group, the dose was 100 mg/kg; Group 3 was F8·2HCl-intragastric administration group, the dose was 100 mg/kg. Blank blood was collected before administration, and blood was collected at predetermined time points after administration:
Intravenous injection group: before administration, 2 min, 5 min, 15 min, 30 min, 1 h, 2 h, 4 h, 8 h, 12 h, 24 h. Intragastric administration group: Before administration, 5 min, 15 min, 30 min, 1 h, 2 h, 4 h, 6 h, 8 h, 12 h, 24 h. About 0.5 mL of blood was collected and placed in an EDTA-K2 tube at […]. The plasma was centrifuged and stored at −80°C. The samples were detected by liquid-mass spectrometry analysis system. The chromatographic column used was ODS-C18 (4.6 × 50 mm, 3 µm). The chromatographic conditions were as follows: Mobile phase A is aqueous phase, […] (including 0.1% formic acid); Mobile phase B is organic, 95% acetonitrile (containing 0.1% formic acid). Flow rate of 0.4 mL/min, column temperature: room temperature, according to the drug plasma concentration data, calculated pharmacokinetic parameters using DAS 2.0 software.
After oral administration, drugs need to go through four stages, namely, absorption, distribution, metabolism and excretion. However, the changes in solubility of drugs after salting only affect the absorption stage. Since absorption is accompanied by a dissolution process, the water solubility and dissolution rate of drugs are the main factors that determine their absorption, and then affect their oral bioavailability ([Elder et al., 2013]). Under the stimulation of cell activity and increased solubility, pharmacokinetic experiments were carried out to understand the drug exposure and provide a basis for further druggability of compound F8. In this study, compound F8 and F8·2HCl were administered in two different ways: tail vein injection (20 mg/kg) and gavage (100 mg/kg), and pharmacokinetic parameters were measured in Sprague-Dawley (SD) rats (Figures 3, 4).

MCF-7 = experiment: MTT cytotoxicity / anti-proliferation assay; type: cell-based; conditions: MCF-7, MTT, 72 h; read-out: IC50, cancer cell viability
HuH7 = experiment: MTT cytotoxicity / anti-proliferation assay; type: cell-based; conditions: 72 h, read-out: IC50, cancer cell viability
HCC-1806 = experiment: MTT cytotoxicity / anti-proliferation assay; type: cell-based; conditions: HCC-1806, MTT, 72 h; read-out: IC50, cancer cell viability
[3] = SD rats, 100 mg/kg, route ip (methods: intragastric), 100 mg/kg
[4] = SD rats, oral administration 100 mg/kg, 100 mg/kg

## O=C(NCc1ccc(NC(=O)c2cc(F)ccc2N2CCCC2)cc1)OCc1cccnc1 [F8·2HCl]
Ki-67
  expression of Ki-67 protein (IHC): significantly decreased
E-cadherin
  expression level of E-cadherin protein (IHC): increase the expression level; also recorded: increased
p21
  level of p21 protein (IHC): significantly upregulated
CDK2
  expression of CDK2 (IHC): declined dose-dependently; also recorded: significantly decreased
Cleaved Caspase-3
  expression of Cleaved Caspase-3 protein (IHC): significantly upregulated; also recorded: increased
HCT-116
  IC50: 4.02 ± 0.28 µM
[1]; F8·2HCl vs F8
  water solubility relative to compound F8: more than 50 times
[1]; normal saline, compared with pure water
  solubility in normal saline: not much different from pure water
[1]; pure water
  Solubility in aqueous solution: more than 50 mg/mL
[2]
  Crystalline: crystallization
  Hygroscopic: Almost no moisture absorption
  Stability: remain stable under high temperature (80°C), acid, alkaline, oxidation and reduction conditions; also recorded: Keep stable in extreme environment
[2]; water
  Solubility: Soluble
HGC-27 xenograft; 37.5 mg/kg
  tumor growth inhibition (TGI): 60.6%
HGC-27 xenograft; 75 mg/kg
  tumor growth inhibition (TGI): 70.1%
HGC-27 xenograft; 37.5 and 75 mg/kg, during treatment
  body weight of mice vs control group: no significant weight loss
HGC-27 xenograft; 37.5 and 75 mg/kg, final day
  tumor weight vs control group: significant decrease in tumor weight
SK-Hep-1
  IC50: 9.37 ± 0.91 µM
MDA-MB-468
  IC50: 1.42 ± 0.19 µM
Pharmacokinetic study; [3]
  AUC (0-∞): 1770 ng·h/mL
  Cmax: 580 ng/mL
  T1/2: 3.63 h
  Tmax: 1.42 h
Pharmacokinetic study; SD rats, oral 100 mg/kg vs iv 20 mg/kg
  bioavailability: 5.06%
Pharmacokinetic study; [4]
  area under the concentration-time curve (AUC0-t): 1770 ng·h/mL
  peak plasma concentration: 0.58 µg/mL
Pharmacokinetic study; male, Sprague-Dawley, rat, plasma, po, 100 mg/kg, same oral dose, F8·2HCl vs F8
  half-life extension relative to F8: 1 h
Pharmacokinetic study; same oral dose, F8·2HCl vs F8
  increase of Tmax relative to F8: ~10 times
MCF-7
  IC50: 47.69 ± 0.15 µM
HuH7
  IC50: 10.9 ± 0.97 µM
HCC-1806
  IC50: 16.2 ± 0.41 µM
